According to article PMC5923142, “Selection and Characterization of Rupintrivir-Resistant Norwalk Virus Replicon Cells In Vitro” (Antimicrobial Agents and Chemotherapy, 2018):

Assays:
[1] = molecular target: T1, GV A105V/I109V mutant protease (Norovirus, UniProt Q80J95, A1099V/I1103V); assay: Cell-based FRET assay, GV A105V/I109V protease; design: species or system murine norovirus (MNV) GV (DQ285629)
T1 construct: plasmids expressing norovirus protease from GI.1 (M87661), GII.4 (DQ658413), or GV (DQ285629) norovirus; expressed in transfected cells; host or cells: HEK293T
T1 sequence (Q80J95 995-1177 A1099V/I1103V): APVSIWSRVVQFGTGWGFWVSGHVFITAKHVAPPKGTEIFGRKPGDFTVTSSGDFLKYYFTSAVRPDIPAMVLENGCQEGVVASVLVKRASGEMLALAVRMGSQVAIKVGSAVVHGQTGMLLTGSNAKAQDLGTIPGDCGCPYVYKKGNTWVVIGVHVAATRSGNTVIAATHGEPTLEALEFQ
Description: (§1) The generation of plasmids expressing norovirus protease from GI.1 (M87661), GII.4 (DQ658413), or GV (DQ285629) norovirus and FRET assay constructs has been described previously ([18]). The plasmids carrying GI, GII, and GV proteases with the A105V, I109V, or A105V/I109V mutation were generated from the wild-type (WT) protease constructs described above by the QuikChange site-directed mutagenesis method. Mutant MNV genomes for reverse genetics were generated by two-step PCR mutagenesis of the WT MNV genome (pT7 MNV 3RZ) construct as described previously ([27]). The primers used for generation of the plasmids are listed in Tables S1 and S2 in the supplemental material.
(§2) The YFP/CFP ratio was used to determine FRET efficiency, as described previously ([18], [40]). Briefly, HEK293T cells were plated into black 96-well cell culture microplates (Greiner Bio-One) at a density of 5 × 10^4 cells/well in 100 μl of DMEM containing 10% fetal bovine serum with or without various concentrations of rupintrivir and then incubated for 4 h in a CO2 incubator at 37°C. […] The plates were then analyzed on a SpectraMax i3 instrument in fluorescence mode, with excitation set at 434 nm and the reading emissions set at 477 nm (CFP) and 527 nm (YFP). The background fluorescence from wells transfected with pcDNA3.1 was determined and subtracted. […]

[2] = molecular target: T2, GI I109V mutant protease (Norovirus, UniProt Q83883, I1209V); assay: Cell-based FRET assay, GI I109V protease; design: species or system norovirus GI.1 (M87661)
T2 construct: plasmids expressing norovirus protease from GI.1 (M87661); expressed in transfected cells; host or cells: HEK293T
T2 sequence (Q83883 1101-1281 I1209V): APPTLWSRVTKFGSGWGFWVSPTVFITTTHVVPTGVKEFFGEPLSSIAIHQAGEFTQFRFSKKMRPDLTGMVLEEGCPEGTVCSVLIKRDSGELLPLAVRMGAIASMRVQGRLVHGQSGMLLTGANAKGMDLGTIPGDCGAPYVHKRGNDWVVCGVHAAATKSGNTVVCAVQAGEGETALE
Description: as §1, §2

[3] = system: Norwalk virus replicon; assay: Norwalk virus replicon RNA level in HGT-NV cells by qRT-PCR; assay type: cell-based, Human norovirus (HuNoV) GI
Procedure: A human gastric tumor-1 (HGT-1) cell line ([29]) was used to establish a human norovirus replicon-harboring HGT (HGT-NV) cell line. In brief, viral protein genome (VPg)-linked RNA was isolated from BHK cells containing the Norwalk virus GI replicon and transfected into HGT-1 cells. HGT-NV replicon cells were selected in G418 (1 mg/ml), and limiting dilution was used to identify a clone with high viral RNA levels. The generated HGT-NV replicon cells were grown and maintained under G418 selection. The replicon-containing BHK cell line was generated by the transfection of in vitro-transcribed capped RNA from the cDNA construct of the Norwalk virus replicon ([9]), kindly provided by Kim Green (National Institutes of Health, Bethesda, MD, USA), into baby hamster kidney cells. Human embryonic kidney HEK293T cells were obtained from ATCC. The murine microglial BV-2 cell line was provided by Jennifer Pocock (University College London, London, UK). […]
The inhibitory effect of rupintrivir on HuNoV replication was assessed by quantification of the levels of GI NuNoV RNA and β-actin RNA as the reference gene. […] The real-time quantitative reverse transcription-PCR (qRT-PCR) assay was performed by using a One-Step Plus qRT-PCR kit according to the protocol of the manufacturer (Primer Design). […] Relative quantification was performed using the 2^−ΔΔCT threshold cycle (CT) method ([38]). […]

With `CCOC(=O)/C=C/[C@H](C[C@@H]1CCNC1=O)NC(=O)[C@@H](CC(=O)[C@@H](NC(=O)c1cc(C)on1)C(C)C)Cc1ccc(F)cc1` [rupintrivir, Rupintrivir] the IC50 ([1]; HEK293T cells, GV NS1/2-NS3 FRET substrate) was 2300 ± 300 nM, the “fold increase in IC50” value ([1]; vs GV WT protease) was 2.3 fold and the IC50 ([2]; HEK293T cells, GI NS1/2-NS3 FRET substrate) was 4000 ± 400 nM. The “fold increase in IC50” value ([2]; vs GI WT protease) was 3.1 fold, the “selectivity index (CC50/EC50)” value ([3]; HGT-NV cells) was greater than 77 and the EC50 ([3]; Norwalk virus, 72 h, read-out: 50% effective concentration (EC50), replicon RNA) was 1300 ± 100 nM.
